Legend:
Assay in all cases: Weeding effect in post-emergence stage
Type in all cases: in vivo
Abutilon theophrasti = conditions: for Weeding effect in post-emergence stage, Abutilon theophrasti: level of fresh weight growth control rate; for Weeding effect in post-emergence stage, Abutilon theophrasti (level): fresh weight control rate level
Procedure, shortened: (§1)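 Read-out is growth control rate, counted 3 weeks post-spray and averaged over three repeats. Greenhouse plants at the 2-3 leaf stage received spray-tower application at 500, 250, 125, 60, 30, 15 or 7.5 g/ha, with methyl oleate EC (1.5 liter/ha) and Tween 80 added.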

Alopecurus japonicus = conditions: for Weeding effect in post-emergence stage, Alopecurus japonicus: level of fresh weight growth control rate; for Weeding effect in post-emergence stage, Alopecurus japonicus (level): fresh weight control rate level
Procedure, shortened: as §1

Digitaria sanguinalis = conditions: for Weeding effect in post-emergence stage, Digitaria sanguinalis: level of fresh weight growth control rate; for Weeding effect in post-emergence stage, Digitaria sanguinalis (level): fresh weight control rate level
Procedure, shortened: as §1

Eleusine indica = conditions: for Weeding effect in post-emergence stage, Eleusine indica: level of fresh weight growth control rate; for Weeding effect in post-emergence stage, Eleusine indica (level): fresh weight control rate level
Procedure, shortened: as §1

Setaria viridis = conditions: for Weeding effect in post-emergence stage, Setaria viridis: level of fresh weight growth control rate; for Weeding effect in post-emergence stage, Setaria viridis (level): fresh weight control rate level
Procedure, shortened: as §1

Echinochloa crusgalli = conditions: for Weeding effect in post-emergence stage, Echinochloa crusgalli: level of fresh weight growth control rate; for Weeding effect in post-emergence stage, Echinochloa crusgalli (level): fresh weight control rate level
Procedure, shortened: as §1

| Compound | Weeding effect in post-emergence stage, Abutilon theophrasti (Abutilon theophrasti; Dose 15 g/ha) | Weeding effect in post-emergence stage, Alopecurus japonicus (Alopecurus japonicus; Dose 15 g/ha) | Weeding effect in post-emergence stage, Digitaria sanguinalis (Digitaria sanguinalis; Dose 15 g/ha) | Weeding effect in post-emergence stage, Eleusine indica (Eleusine indica; Dose 15 g/ha) | Weeding effect in post-emergence stage, Setaria viridis (Setaria viridis; Dose 15 g/ha) | Weeding effect in post-emergence stage, Echinochloa crusgalli (Echinochloa crusgalli; Dose 15 g/ha) | further results |
| --- | --- | --- | --- | --- | --- | --- | --- |
| COC(=O)C(O/N=C/c1cc(-n2c(=O)cc(C(F)(F)F)n(C)c2=O)c(F)cc1Cl)c1ccccc1 (stereo not drawn) [Compound 337] | 5 (Level 5: growth control rate is above 85%) | 5 (Level 5: growth control rate is above 85%) | 5 (Level 5: growth control rate is above 85%) | 5 (Level 5: growth control rate is above 85%) | 5 (Level 5: growth control rate is above 85%) | 5 (Level 5: growth control rate is above 85%) | – |
| CSCCOC(=O)C(C)O/N=C/c1cc(-n2c(=O)cc(C(F)(F)F)n(C)c2=O)c(F)cc1Cl (stereo not drawn) [Compound 234] | 5 (Level 5: growth control rate is above 85%) | 5 (Level 5: growth control rate is above 85%) | 5 (Level 5: growth control rate is above 85%) | 5 (Level 5: growth control rate is above 85%) | 5 (Level 5: growth control rate is above 85%) | 5 (Level 5: growth control rate is above 85%) | – |
| CC(O/N=C/c1cc(-n2c(=O)cc(C(F)(F)F)n(C)c2=O)c(F)cc1Cl)C(=O)OCCC#N (racemic) [Compound 227] | 5 (Level 5: growth control rate is above 85%) | 5 (Level 5: growth control rate is above 85%) | 5 (Level 5: growth control rate is above 85%) | 5 (Level 5: growth control rate is above 85%) | 5 (Level 5: growth control rate is above 85%) | 5 (Level 5: growth control rate is above 85%) | – |
| COC(=O)C(C)OC(=O)[C@@H](C)O/N=C/c1cc(-n2c(=O)cc(C(F)(F)F)n(C)c2=O)c(F)cc1Cl (stereo partly drawn) [241(R)] | – | – | – | – | – | – | Weeding effect in post-emergence stage, Abutilon theophrasti (Abutilon theophrasti; Dose 30 g/ha): 5 (Level 5: growth control rate is above 85%); Weeding effect in post-emergence stage, Alopecurus japonicus (Alopecurus japonicus; Dose 30 g/ha): 5 (Level 5: growth control rate is above 85%); Weeding effect in post-emergence stage, Digitaria sanguinalis (Digitaria sanguinalis; Dose 30 g/ha): 5 (Level 5: growth control rate is above 85%); Weeding effect in post-emergence stage, Eleusine indica (Eleusine indica; Dose 30 g/ha): 5 (Level 5: growth control rate is above 85%); Weeding effect in post-emergence stage, Setaria viridis (Setaria viridis; Dose 30 g/ha): 5 (Level 5: growth control rate is above 85%); Weeding effect in post-emergence stage, Echinochloa crusgalli (Echinochloa crusgalli; Dose 30 g/ha): 5 (Level 5: growth control rate is above 85%) |
| CCCOC(=O)OC(=O)C(C)O/N=C/c1cc(-n2c(=O)cc(C(F)(F)F)n(C)c2=O)c(F)cc1Cl (stereo not drawn) [Compound 236] | – | – | – | – | – | – | Weeding effect in post-emergence stage, Abutilon theophrasti (Abutilon theophrasti; Dose 60 g/ha): 5 (Level 5: growth control rate is above 85%); Weeding effect in post-emergence stage, Alopecurus japonicus (Alopecurus japonicus; Dose 60 g/ha): 5 (Level 5: growth control rate is above 85%); Weeding effect in post-emergence stage, Digitaria sanguinalis (Digitaria sanguinalis; Dose 60 g/ha): 5 (Level 5: growth control rate is above 85%); Weeding effect in post-emergence stage, Eleusine indica (Eleusine indica; Dose 60 g/ha): 5 (Level 5: growth control rate is above 85%); Weeding effect in post-emergence stage, Setaria viridis (Setaria viridis; Dose 60 g/ha): 5 (Level 5: growth control rate is above 85%); Weeding effect in post-emergence stage, Echinochloa crusgalli (Echinochloa crusgalli; Dose 60 g/ha): 5 (Level 5: growth control rate is above 85%) |
| CCN(CC)C(=O)C(C)ON=Cc1cc(-n2c(=O)cc(C(F)(F)F)n(C)c2=O)c(F)cc1Cl (stereo not drawn) [Compound 502] | – | – | – | – | – | – | Weeding effect in post-emergence stage, Abutilon theophrasti (level) (Abutilon theophrasti; Dose 15 g/ha): 5 (Level 5: growth control rate is above 85%); Weeding effect in post-emergence stage, Alopecurus japonicus (level) (Alopecurus japonicus; Dose 15 g/ha): 5 (Level 5: growth control rate is above 85%); Weeding effect in post-emergence stage, Digitaria sanguinalis (level) (Digitaria sanguinalis; Dose 15 g/ha): 5 (Level 5: growth control rate is above 85%); Weeding effect in post-emergence stage, Eleusine indica (level) (Eleusine indica; Dose 15 g/ha): 5 (Level 5: growth control rate is above 85%); Weeding effect in post-emergence stage, Setaria viridis (level) (Setaria viridis; Dose 15 g/ha): 5 (Level 5: growth control rate is above 85%); Weeding effect in post-emergence stage, Echinochloa crusgalli (level) (Echinochloa crusgalli; Dose 15 g/ha): 5 (Level 5: growth control rate is above 85%) |
| COC(=O)[C@@H](CC1CC1)O/N=C/c1cc(-n2c(=O)cc(C(F)(F)F)n(C)c2=O)c(F)cc1Cl [462(R)] | – | – | – | – | – | – | Weeding effect in post-emergence stage, Abutilon theophrasti (level) (Abutilon theophrasti; Dose 15 g/ha): 5 (Level 5: growth control rate is above 85%); Weeding effect in post-emergence stage, Alopecurus japonicus (level) (Alopecurus japonicus; Dose 15 g/ha): 5 (Level 5: growth control rate is above 85%); Weeding effect in post-emergence stage, Digitaria sanguinalis (level) (Digitaria sanguinalis; Dose 15 g/ha): 5 (Level 5: growth control rate is above 85%); Weeding effect in post-emergence stage, Eleusine indica (level) (Eleusine indica; Dose 15 g/ha): 5 (Level 5: growth control rate is above 85%); Weeding effect in post-emergence stage, Setaria viridis (level) (Setaria viridis; Dose 15 g/ha): 5 (Level 5: growth control rate is above 85%); Weeding effect in post-emergence stage, Echinochloa crusgalli (level) (Echinochloa crusgalli; Dose 15 g/ha): 5 (Level 5: growth control rate is above 85%) |
| CC(O/N=C/c1cc(-n2c(=O)cc(C(F)(F)F)n(C)c2=O)c(F)cc1Cl)C(=O)OCc1ccncc1 (stereo not drawn) [Compound 303] | 5 (Level 5: growth control rate is above 85%) | 5 (Level 5: growth control rate is above 85%) | 5 (Level 5: growth control rate is above 85%) | 5 (Level 5: growth control rate is above 85%) | 5 (Level 5: growth control rate is above 85%) | 5 (Level 5: growth control rate is above 85%) | – |
| CC(O/N=C/c1cc(-n2c(=O)n(C)c(=S)n(C)c2=O)c(F)cc1Cl)C(=O)OCC(F)(F)F (stereo not drawn) [Compound 439] | – | – | – | – | – | – | Weeding effect in post-emergence stage, Abutilon theophrasti (level) (Abutilon theophrasti; Dose 30 g/ha): 5 (Level 5: growth control rate is above 85%); Weeding effect in post-emergence stage, Alopecurus japonicus (level) (Alopecurus japonicus; Dose 30 g/ha): 5 (Level 5: growth control rate is above 85%); Weeding effect in post-emergence stage, Digitaria sanguinalis (level) (Digitaria sanguinalis; Dose 30 g/ha): 5 (Level 5: growth control rate is above 85%); Weeding effect in post-emergence stage, Eleusine indica (level) (Eleusine indica; Dose 30 g/ha): 5 (Level 5: growth control rate is above 85%); Weeding effect in post-emergence stage, Setaria viridis (level) (Setaria viridis; Dose 30 g/ha): 5 (Level 5: growth control rate is above 85%); Weeding effect in post-emergence stage, Echinochloa crusgalli (level) (Echinochloa crusgalli; Dose 30 g/ha): 5 (Level 5: growth control rate is above 85%) |
| COC(=O)C(C)(C)OC(=O)C(C)O/N=C/c1cc(-n2c(=O)cc(C(F)(F)F)n(C)c2=O)c(F)cc1Cl (stereo not drawn) [Compound 243] | 5 (Level 5: growth control rate is above 85%) | 5 (Level 5: growth control rate is above 85%) | 5 (Level 5: growth control rate is above 85%) | 5 (Level 5: growth control rate is above 85%) | 5 (Level 5: growth control rate is above 85%) | 5 (Level 5: growth control rate is above 85%) | – |
| COC(=O)[C@@H](C)O/N=C/c1cc(-n2c(=O)cc(C(F)(F)F)n(C)c2=O)c(F)cc1C(F)(F)F [342(R)] | 5 (Level 5: growth control rate is above 85%) | 5 (Level 5: growth control rate is above 85%) | 5 (Level 5: growth control rate is above 85%) | 5 (Level 5: growth control rate is above 85%) | 5 (Level 5: growth control rate is above 85%) | 5 (Level 5: growth control rate is above 85%) | – |
| CCOC(=O)[C@H](O/N=C/c1cc(-n2c(=O)n(C)c(=S)n(C)c2=O)c(F)cc1Cl)C1CC1 [76(R)] | 5 (Level 5: growth control rate is above 85%) | 5 (Level 5: growth control rate is above 85%) | 5 (Level 5: growth control rate is above 85%) | 5 (Level 5: growth control rate is above 85%) | 5 (Level 5: growth control rate is above 85%) | 5 (Level 5: growth control rate is above 85%) | – |
| CC(O/N=C/c1cc(-n2c(=O)n(C)c(=S)n(C)c2=O)c(F)cc1Cl)C(=O)OCc1ccccc1 (stereo not drawn) [Compound 42] | 5 (Level 5: growth control rate is above 85%) | 4 (Level 4: growth control rate is greater than or equal to 60% and less than 85%) | 5 (Level 5: growth control rate is above 85%) | 5 (Level 5: growth control rate is above 85%) | 5 (Level 5: growth control rate is above 85%) | 5 (Level 5: growth control rate is above 85%) | – |
| COC(=O)[C@H](O/N=C/c1cc(-n2c(=O)cc(C(F)(F)F)n(C)c2=O)c(F)cc1Cl)c1ccccc1 [337(R)] | 5 (Level 5: growth control rate is above 85%) | 5 (Level 5: growth control rate is above 85%) | 5 (Level 5: growth control rate is above 85%) | 5 (Level 5: growth control rate is above 85%) | 5 (Level 5: growth control rate is above 85%) | 5 (Level 5: growth control rate is above 85%) | – |
| C[C@@H](O/N=C/c1cc(-n2c(=O)cc(C(F)(F)F)n(C)c2=O)c(F)cc1Cl)C(=O)OC(C)(C)C [202(R)] | 5 (Level 5: growth control rate is above 85%) | 5 (Level 5: growth control rate is above 85%) | 5 (Level 5: growth control rate is above 85%) | 5 (Level 5: growth control rate is above 85%) | 5 (Level 5: growth control rate is above 85%) | 5 (Level 5: growth control rate is above 85%) | – |
